Measurements published in US10765643B2, “Use of cannabidiol in the treatment of epilepsy” (GW Pharma Limited, priority 2014, dated 2020).

Assays:
[1] = test system: seizures associated with Aicardi Syndrome; assay: Expanded access compassionate use program: CBD added to baseline AED regimen, seizure frequency from seizure diaries; type: in vivo, human
Procedure: Of 137 children and young adults with severe, childhood onset treatment-resistant epilepsy (TRE), 14 suffered from Aicardi syndrome. These subjects were tested with a highly purified extract of cannabidiol (CBD) obtained from a cannabis plant. The participants in the study were part of an expanded access compassionate use program for CBD.
All of these patients diagnosed with Aicardi Syndrome presented with multiple seizure types which included
focal seizures with impairment; infantile spasm; clonic seizures; tonic seizures; tonic-clonic seizures; atonic seizures; myoclonic seizures; absence seizures; and focal seizures evolving to secondary generalised seizures.
All patients entered a baseline period of 4 weeks when parents/caregivers kept prospective seizure diaries, noting all countable motor seizure types.
The patients then received a highly purified CBD extract (greater than 98% CBD w/w) in sesame oil, of known and constant composition, at a dose of 5 mg/kg/day in addition to their baseline anti-epileptic drug (AED) regimen.
Laboratory testing for hematologic, liver, kidney function, and concomitant AED levels was performed at baseline, and after CBD therapy.
All patients were taking at least two concomitant anti-epileptic drugs. These included clobazam; levetiracetam; topiramate; stiripentol; phenobarbital; lacsamide; valproic acid; zonisamide. The average number of concomitant antiepileptic drugs being taken was 2.7.
There were 14 children and young adult patients who received at least 3 months of treatment all of whom suffered from treatment-resistant epilepsy which is characterised by Aicardi Syndrome.
The change from baseline in the number of different seizures and total number of seizures after 12 weeks treatment are summarized in Table 7 below.

[2] = Solubility of drug substance in water; type: physicochemical
Text: The drug substance, CBD is insoluble in water. Sesame oil was selected as an excipient to solubilize the drug substance.

seizures [3] = settings: 200 mg/day pure CBD, four adult patients; seizure frequency unchanged in the remainder; cited from earlier work
generalized epilepsy = settings: eight adult patients with generalized epilepsy; cited from earlier work
[4] = test system: seizures after pro-convulsant drugs or an electric current; settings: mice; cited from earlier work
seizures [5] = settings: 200 mg/day pure CBD, twelve institutionalized adult patients, open label; cited from earlier work
Lennox-Gastaut syndrome = settings: one child with Lennox-Gastaut syndrome, CBD in an oily solution; cited from earlier work
seizures [6] = settings: Consroe et al., 1977; cited from earlier work
[7] = 14 Aicardi Syndrome patients, after 12 weeks treatment, CBD 5 up to 25 mg/kg/day plus concomitant AED
[8] = Aicardi Syndrome patients, after 3 months of therapy

Q: For `C=C(C)[C@@H]1CCC(C)=C[C@H]1c1c(O)cc(CCCCC)cc1O` [CBD, Cannabidiol], which “Average change in baseline (%) Convulsive seizures” value [1, 7] is on record?
A: The value was −77%.

Q: What about the “Average change in baseline (%) Focal seizures with impairment” value [1, 7] of the same compound?
A: Its value is −62%.

Q: And the “Average change in baseline (%) Infantile spasm” value [1, 7]?
A: The value was −55.5%.

Q: What about the “Average change in baseline (%) Total seizures” value [1, 7] of the same compound?
A: The value was −69%.

Q: And the “reduction in convulsive seizures” value [1, 8]?
A: The value was 77%.

Q: And the “reduction in focal seizures with impairment” value [1, 8]?
A: Its value is 62%.

Q: What about the “reduction of infantile spasms” value [1, 8] of the same compound?
A: Its value is 55.5%.

Q: And the “reduction in total seizures” value ([1]; Aicardi Syndrome patients, after 3 months of therapy, average decrease)?
A: Its value is 69%.

Q: And the “focal onset seizures evolving to secondary generalisation” value ([1]; one patient, week 12, 47 seizures at baseline, earlier stage of program)?
A: Its value is 17 per month.

Q: And the tonic-clonic seizures ([1]; other patient, week 12, 7 seizures at baseline, earlier stage of program)?
A: The tonic-clonic seizures was 5 per month.

Q: What about the tonic seizures ([1]; other patient, week 12, 67 seizures at baseline, earlier stage of program) of the same compound?
A: The tonic seizures was 6 per month.

Q: And the solubility in water [2]?
A: Its solubility in water is “insoluble”.

Q: What about the “patients who became seizure free” value (seizures [3]) of the same compound?
A: The value was “two of the four”.

Q: And the “patients with marked reduction of seizures” value (generalized epilepsy)?
A: The value was 4.

Q: What about the prevention of seizures [4] of the same compound?
A: Its prevention of seizures is “able to prevent seizures”.

Q: What about the controlling seizures (seizures [5]) of the same compound?
A: Its controlling seizures is “ineffective”.

Q: And the seizure frequency (Lennox-Gastaut syndrome)?
A: Its seizure frequency is “improvement”.

Q: Which pro-convulsant effect (seizures [6]) does the source give for `CCCCCc1cc(O)c2c(c1)OC(C)(C)[C@@H]1CCC(C)=C[C@@H]21` [THC, Tetrahydro- cannabinol] here?
A: Its pro-convulsant effect is “pro-convulsant”.
